According to patent publication US20230399341A1, “7-PHENYL SUBSTITUTED 2-AMINOQUINAZOLINE INHIBITORS OF HPK1” (MERCK SHARP & DOHME LLC, priority 2020, published 2023):

Biological target: T1, Human HPK1, catalytic domain (Homo sapiens, UniProt Q92918)
T1 sequence (Q92918 1-346): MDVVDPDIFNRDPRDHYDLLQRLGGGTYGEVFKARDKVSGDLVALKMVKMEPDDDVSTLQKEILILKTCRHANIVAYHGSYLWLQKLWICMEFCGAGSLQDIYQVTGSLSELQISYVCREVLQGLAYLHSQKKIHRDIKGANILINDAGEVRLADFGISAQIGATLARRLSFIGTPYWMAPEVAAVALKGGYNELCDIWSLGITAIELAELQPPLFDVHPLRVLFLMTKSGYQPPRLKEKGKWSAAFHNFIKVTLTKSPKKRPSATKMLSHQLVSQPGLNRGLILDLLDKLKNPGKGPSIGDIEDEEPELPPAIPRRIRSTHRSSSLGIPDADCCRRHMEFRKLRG
Test: HPK1-SLP76 TR-FRET Assay
Type: biochemical
Conditions: 75 pM HPK1, ATP 10 uM, SLP76 10 nM, 30 min pre-incubation, 60 min reaction

`C[C@H]1COC(=O)N1c1cc(N)c2cnc(Nc3ccc(CS(C)(=O)=O)cc3)nc2c1` [Compound 3-78, (S)-3-(5-amino-2-((4-((methyl-sulfonyl)methyl)phenyl)amino)-quinazolin-7-yl)-4-methyloxa-zolidin-2-one] gave an IC50 of 0.169 nM.

In the case of `CCS(=O)(=O)Cc1ccc(Nc2ncc3c(N)c(F)c(-c4cnc5c(c4C)NCCO5)cc3n2)cc1` [Compound 2-89, N2-(4-((ethylsulfonyl)methyl)phenyl)-6-fluoro-7-(8-methyl-2,3-dihydro-1H-pyrido[2,3-b][1,4]oxazin-7-yl)quinazoline-2,5-diamine], the IC50 is reported as 0.0117 nM.

Work on `COc1cc2c(cc1Nc1ncc3c(N)c(F)c(-c4cnc5c(c4C)NCCO5)c(Cl)c3n1)CN(C)CC2` (single isomer, unassigned) [Compound 2-93, (+ or −)-8-chloro-6-fluoro-N~2~-(6-methoxy-2-methyl-1,2,3,4-tetrahydroisoquinolin-7-yl)-7-(8-methyl-2,3-dihydro-1H-pyrido[2,3-b][1,4]oxazin-7-yl)quinazoline-2,5-diamine] yielded an IC50 of 0.0213 nM.

`COc1cc2c(cc1Nc1ncc3ccc(N[C@H]4CC[C@@H](O)CC4)cc3n1)CN(C)CC2` [Compound 3-46, (1s,4s)-4-((2-((6-methoxy-2-methyl-1,2,3,4-tetrahydroiso-quinolin-7-yl)amino)quinazolin-7-yl)amino)cyclohexan-1-ol] was tested, and the IC50 was 118 nM.

With `CC(=O)NC1CCc2cc(Nc3ncc4c(N)c(F)c(-c5cnc6c(c5C)NCCO6)cc4n3)ccc21` (single isomer, unassigned) [Compound 2-11, (S or R)—N-(5-((5-amino-6-fluoro-7-(8-methyl-2,3-dihydro-1H-pyrido[2,3-b][1,4]oxazin-7-yl)quinazolin-2-yl)amino)-2,3-dihydro-1H-inden-1-yl)acetamide] the IC50 was 0.0821 nM.

Compound `Cc1c(-c2cc3nc(Nc4ccc(CS(=O)(=O)C(C)C)cc4)ncc3cc2F)cnc2c1NCCO2` [Compound 1-128, 6-fluoro-N-(4-((isopropylsulfonyl)methyl)phenyl)-7-(8-methyl-2,3-dihydro-1H-pyrido[2,3-b][1,4]oxazin-7-yl)quinazolin-2-amine] has an IC50 of 0.0828 nM.

`COc1cncc(-c2ccc3cnc(Nc4cc5c(cc4OC)CCNC5)nc3c2)c1` [Compound 1-44, 7-(5-methoxypyridin-3-yl)-N-(6-methoxy-1,2,3,4-tetrahydroisoquinolin-7-yl)quinazolin-2-amine] gave an IC50 of 9.45 nM.

With `Cc1c(-c2cc3nc(Nc4ccc5c(c4)CN(CC(C)(C)O)C5=O)ncc3c(N)c2F)cnc2c1NCCO2` [Compound 2-42, 5-{[5-amino-6-fluoro-7-(8-methyl-2,3-dihydro-1H-pyrido[2,3-b][1,4]oxazin-7-yl)quinazolin-2-yl]amino}-2-(2-hydroxy-2-methylpropyl)-2,3-dihydro-1H-isoindol-1-one] the IC50 was 0.153 nM.

`COc1nc(C2(C#N)CC2)ccc1Nc1ncc2c(N)c(F)c(-c3cnc4c(c3C)NCCO4)c(Cl)c2n1` [Compound 2-182, (+ or −)-1-(5-{[5-amino-8-chloro-6-fluoro-7-(8-methyl-2,3-dihydro-1H-pyrido[2,3-b][1,4]oxazin-7-yl)quinazolin-2-yl]amino}-6-methoxypyridin-2-yl)cyclopropane-1-carbonitrile] gave an IC50 of 32.7 nM.

`COc1cc2c(cc1Nc1ncc3ccc(-c4c[nH]nc4C)cc3n1)CN(C)CC2` [Compound 1-105, N-(6-methoxy-2-methyl-1,2,3,4-tetrahydroisoquinolin-7-yl)-7-(3-methyl-1H-pyrazol-4-yl)quinazolin-2-amine] gave an IC50 of 196 nM.

In the case of `COc1cc2c(cc1Nc1ncc3c(N)c(F)c(-c4cnc5c(c4C)NCCO5)c(Cl)c3n1)CN(C)CC21CC1` [Compound 2-169, 8-chloro-6-fluoro-N~2~- (6′-methoxy-2′-methyl-2′,3′-dihydro-1′H-spiro[cyclopropane-1,4′-isoquinolin]-7′-yl)-7-(8-methyl-2,3-dihydro-1H-pyrido[2,3-b][1,4]oxazin-7-yl)quinazoline-2,5-diamine], the IC50 is reported as 4.97 nM.

Compound `Cc1c(-c2c(F)c(N)c3cnc(Nc4ccc5c(c4)CN(C)CC5)nc3c2Cl)cnc2c1NCCO2` (single isomer, unassigned) [Compound 2-179, (+ or −)-8-chloro-6-fluoro-7-(8-methyl-2,3-dihydro-1H-pyrido[2,3-b][1,4]oxazin-7-yl)-N~2~- (2-methyl-1,2,3,4-tetrahydroisoquinolin-7-yl)quinazoline-2,5-diamine] has an IC50 of 2.93 nM.

`COc1cc2c(cc1Nc1ncc3ccc(N4CC(C(C)(C)O)OC4=O)cc3n1)CN(C)CC2` (racemic) [Compound 3-9, (S and R)-5-(2-hydroxypropan-2-yl)-3-{2-[(6-methoxy-2-meth-yl-1,2,3,4-tetrahydroisoquinolin-7-yl)amino]quinazolin-7-yl}-1,3-oxazolidin-2-one] gave an IC50 of 63 nM.

For `COc1cc2c(cc1Nc1ncc3ccc([C@H]4CC[C@H](CN)CC4)cc3n1)CN(C)CC2` [Compound 5-2, 7-((1r,4r)-4-(aminomethyl)-cyclohexyl)-N-(6-methoxy-2-methyl-1,2,3,4-tetrahydroiso-quinolin-7-yl)quinazolin-2-amine], the IC50 was 165 nM.

For `COc1cc2c(cc1Nc1ncc3c(N)c(F)c(-c4cnc5c(c4C)NCCO5)c(Cl)c3n1)CN(C(C)C)CC2` [Compound 2-102, (+ or −)-8-chloro-6-fluoro-N~2~-[6-methoxy-2-(propan-2-yl)-1,2,3,4-tetrahydroisoquinolin-7-yl]-7-(8-methyl-2,3-dihydro-1H-pyrido[2,3-b][1,4]oxazin-7-yl)quinazoline-2,5-diamine], the IC50 was 0.204 nM.

In the case of `COc1cc2c(cc1Nc1ncc3ccc(-c4cncc(C(C)(C)O)c4)cc3n1)CN(C)CC2` [Compound 1-14, 2-(5-{2-[(6-methoxy-2-methyl-1,2,3,4-tetrahydroisoquinolin-7-yl)amino]quinazolin-7-yl}pyridin-3-yl)propan-2-ol], the IC50 is reported as 55.3 nM.

Compound `COc1cc2c(cc1Nc1ncc3ccc(-c4cncc(C(=O)N5CCOCC5)c4)cc3n1)CNCC2` [Compound 1-47, (5-{2-[(6-methoxy-1,2,3,4-tetrahydroisoquinolin-7-yl)amino]quinazolin-7-yl}pyridin-3-yl)(morpholin-4-yl)methanone] has an IC50 of 273 nM.

`COc1cc2c(cc1Nc1ncc3ccc(-c4ccc5c(c4)CCCO5)cc3n1)CNCC2` [Compound 1-75, 7-(3,4-dihydro-2H-1-benzopyran-6-yl)-N-(6-methoxy-1,2,3,4-tetrahydroisoquinolin-7-yl)quinazolin-2-amine] was tested, and the IC50 was 91.6 nM.

With `COc1cc2c(cc1Nc1ncc3ccc(Nc4cccc(CO)n4)cc3n1)CN(C)CC2` [Compound 3-29, [6-({2-[(6-methoxy-2-methyl-1,2,3,4-tetrahydroisoquinolin-7-yl)amino]quinazolin-7-yl}-amino)pyridin-2-yl]methanol] the IC50 was 20.5 nM.

With `COc1cc2c(cc1Nc1ncc3ccc(Nc4cc(S(C)(=O)=O)ccc4F)cc3n1)CN(C)CC2` [Compound 3-36, N~7~-[2-fluoro-5-(methyl-sulfonyl)phenyl]-N~2~-(6-methoxy-2-methyl-1,2,3,4-tetra-hydroisoquinolin-7-yl)quinaz-oline-2,7-diamine] the IC50 was 4.17 nM.

Compound `Cc1c(-c2cc3nc(Nc4ccc5c(c4)CCN(C)C5)ncc3c(N)c2F)cnc2c1NCCO2` [Compound 2-158, 6-fluoro-7-(8-methyl-2,3-dihydro-1H-pyrido[2,3-b][1,4]oxazin-7-yl)-N~2~- (2-methyl-1,2,3,4-tetrahydroisoquinolin-6-yl)quinazoline-2,5-diamine] has an IC50 of 0.0251 nM.
